Reference: patent publication US20170233409A1, “TYPE IV SECRETION SYSTEM INHIBITORS” (priority 2016, published 2017)
“Also recorded” adds a separate entry of the source.

Columns and labels:
[1] = test system: IncN group conjugative T4SS encoded by pKM101; test: DNA conjugation efficiency, pKM101; settings: 150 μM, compared to vehicle controls
Experimental: (§1) Analysis of DNA conjugation efficiency. Overnight cultures of donor E. coli MG1655 harboring pKM101, donor E. coli MS411 harboring R1-16, and recipient E. coli MG1655 (WM1652) were grown at 37° C. with shaking at 225 rpm in LB/antibiotic, were diluted in antibiotic-free LB containing DMSO or 150 μM compound, and incubated with shaking at 37° C. to reach an OD600 of ˜0.3. Donor and recipient cells were mixed at a ratio of 1:1 on 0.22 μM pore size mixed cellulose ester filters (Millipore) on antibiotic-free LB plates for 2 h at 37° C. Filters were aseptically removed from LB plates and incubated in 100 μl antibiotic-free LB to dislodge E. coli from membranes. Serial dilutions were plated on the appropriate antibiotic (or dual antibiotic) LB plates to determine the number of donor, recipient, and transconjugant cells. Colonies were enumerated after 24 h, and conjugation efficiencies were calculated by dividing the average number of transconjugates by the average number of donors (either pKM101 or R1-16 donor cells). Conjugation efficiency in the presence of compound is expressed as a percentage of conjugation efficiency in DMSO.

cag T4SS [2] = format: cell-based, H. pylori
H. pylori cag T4SS = format: cell-based; settings: strain J166 pre-treated 30 min, 50 μM, 18 hours
H. pylori = H. pylori viability (cellular ATP, CellTiter-Glo); format: cell-based; settings: concentrations up to 150 μM
cag T4SS [3] = test: CagA translocation assay (tyrosine-phosphorylated CagA immunoblot); format: cell-based, H. pylori; settings: 150 μM; compared to vehicle-only and GKP42-treated controls
TLR9 = target: T1, TLR9 (Homo sapiens, UniProt Q9NR96); test: TLR9 activation by CpG ODN (control); format: cell-based; settings: 50 μM
T1 construct: host or cells: HEK293-TLR9 reporter cell line
T1 sequence (Q9NR96 26-1032): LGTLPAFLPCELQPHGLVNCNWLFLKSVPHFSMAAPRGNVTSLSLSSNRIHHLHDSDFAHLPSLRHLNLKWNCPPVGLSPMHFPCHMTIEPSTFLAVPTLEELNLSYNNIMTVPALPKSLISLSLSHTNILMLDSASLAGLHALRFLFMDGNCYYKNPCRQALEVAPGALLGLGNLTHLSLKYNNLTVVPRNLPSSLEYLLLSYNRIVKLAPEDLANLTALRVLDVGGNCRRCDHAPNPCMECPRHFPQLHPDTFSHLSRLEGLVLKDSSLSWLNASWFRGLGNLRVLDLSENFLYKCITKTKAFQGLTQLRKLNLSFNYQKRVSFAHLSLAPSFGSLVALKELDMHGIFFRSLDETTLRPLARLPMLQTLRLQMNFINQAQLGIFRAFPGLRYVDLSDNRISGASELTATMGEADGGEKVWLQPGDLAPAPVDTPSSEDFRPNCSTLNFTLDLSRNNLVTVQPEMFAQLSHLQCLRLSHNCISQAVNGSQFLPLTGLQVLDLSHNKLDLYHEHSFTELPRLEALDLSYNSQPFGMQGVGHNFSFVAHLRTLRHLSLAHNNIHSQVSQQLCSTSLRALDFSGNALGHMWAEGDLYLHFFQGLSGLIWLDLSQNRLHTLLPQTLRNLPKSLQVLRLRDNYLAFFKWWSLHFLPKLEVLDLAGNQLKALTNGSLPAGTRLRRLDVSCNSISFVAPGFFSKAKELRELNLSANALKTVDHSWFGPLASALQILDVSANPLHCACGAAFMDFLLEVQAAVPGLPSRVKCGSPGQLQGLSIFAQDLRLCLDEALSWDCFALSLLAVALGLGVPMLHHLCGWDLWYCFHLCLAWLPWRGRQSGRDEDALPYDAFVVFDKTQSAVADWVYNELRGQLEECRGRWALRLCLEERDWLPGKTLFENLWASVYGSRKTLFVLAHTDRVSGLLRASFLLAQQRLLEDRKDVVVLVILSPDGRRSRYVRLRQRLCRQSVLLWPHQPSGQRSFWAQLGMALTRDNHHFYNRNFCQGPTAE
Experimental: Inhibition of T4SS-dependent activation of human TLR9 signaling by H. pylori. H. pylori strain J166 was grown in broth culture overnight, and was subsequently pre-treated in the indicated compound at a final concentration of 50 μM, or in an equivalent volume of DMSO vehicle for 30 min prior to inoculating cultured HEK293-TLR9 reporter cell lines. Co-cultures were incubated in the presence of 50 μM compound or an equivalent volume of DMSO vehicle supplemented in the cell culture media for the duration of incubation (18 hours). TLR9 activation was assayed using a colorimetric assay (Invivogen), and TLR9 activation in the presence of type IV secretion system (T4SS) inhibitor compounds is expressed as a percentage of TLR9 activation by H. pylori in the presence of vehicle. As a control, TLR9 was activated with the immunostimulatory synthetic ligand CpG oligodeoxynucleotide (CpG ODN) in the presence of DMSO or inhibitor compound at 50 μM final concentration.

cag T4SS pili = test: Scanning electron microscopy of cag T4SS pili; format: cell-based, H. pylori; settings: 150 μM, SEM
Experimental: Scanning electron microscopy. Overnight cultures of H. pylori were diluted to OD600˜0.3 and incubated with shaking at 37° C., 5% CO2 for 1 h in the presence of vehicle or 150 μM compound and co-cultured with AGS cells on tissue culture-treated coverslips (BD Biosciences) at an MOI of 100 in the presence of 150 μM compound or vehicle. H. pylori-AGS cell co-cultures were processed and imaged.
Field emission gun scanning electron microscopy. Samples were fixed with 2.0% paraformaldehyde, 2.5% glutaraldehyde in 0.05 M sodium cacodylate buffer, and secondarily fixed with 0.1% osmium tetroxide. Sequential dehydration was performed by washing with increasing concentrations of ethanol. Samples were dried at the critical point with a Tousimis critical point dryer. Coverslips were mounted onto aluminum stubs and sputter coated with gold-palladium and imaged with an FEI Quanta 250 FEG-SEM.

[4] = test system: IncF group R1-16 conjugative T4SS; test: DNA conjugation efficiency, R1-16; settings: 150 μM
Experimental: as §1

cag T4SS [5] = test: NF-κB luciferase reporter activation by H. pylori in AGS cells; format: cell-based
Experimental: Quantitation of NF-κB signaling activation. AGS cells stably transfected with an NF-κB-luciferase reporter (AGS NF-κB-luc) were cultured for 24 h and treated as described for the IL-8 induction studies. After 4 h co-culture with H. pylori, cell monolayers were washed with sterile PBS, and cell monolayer extracts were obtained by passive cell lysis. NF-κB-luciferase activity was measured by the Steady-Glo Luciferase Assay System (Promega) on a BioTek Synergy 4 plate reader, and plates were normalized to the DMSO vehicle control for each dilution series.

## COc1ccc(Cc2cc(=O)n3c(c2C2CC2)SC[C@H]3C(=O)O)c2ccccc12 [KSK85, (3R)-7-[(4-methoxynaphthalen-1-yl)methyl]-8-cyclopropyl-5-oxo-2,3-dihydro-5H-[1,3]thiazolo[3,2-a]pyridine-3-carboxylic acid]
[1]
  DNA conjugation efficiency of pKM101: reduced
Cag T4SS [2]; 4.5 h co-culture, normalized IL-8 secretion, non-linear regression
  LogEC50, attenuation of cag T4SS-dependent IL-8 secretion: −1.14
Cag T4SS [2]; H. pylori-gastric epithelial cell co-culture, 25-150 μM
  cag T4SS-dependent IL-8 secretion: significantly reduced
Cag T4SS [2]; read-out: EC50, attenuation of cag T4SS-dependent IL-8 secretion, 4.5 h co-culture, normalized IL-8 secretion, non-linear regression
  EC50: 72.2 µM
H. pylori cag T4SS
  T4SS-dependent activation of TLR9 by H. pylori: inhibit
H. pylori
  viability of bacterial cells: did not impact viability
Cag T4SS [3]
  amount of tyrosine-phosphorylated CagA in cultured gastric epithelial cells: significantly reduced
TLR9
  activation of TLR9 by CpG ODN: not by CpG ODN
Cag T4SS pili
  cag T4SS pilus formation at the bacteria-host cell interface: abrogated pilus formation in the majority of H. pylori cells
[4]
  DNA conjugation efficiency of the de-repressed R1-16 system: did not
Cag T4SS [5]; WT H. pylori, AGS NF-κB-luc cells
  cag T4SS-dependent NF-κB activation: significantly reduced; also recorded: reduced compared to the inhibitory effects of C10
Cag T4SS [5]; multiple H. pylori strains
  cag T4SS-mediated NF-κB activation by H. pylori strains of different phylogeographic origins: inhibited
Cag T4SS [5]; ΔcagA mutant
  NF-κB activation by H. pylori ΔcagA mutant compared to WT strain: significantly enhanced
